Experimental data published in patent publication US20240252454A1, “COMPOSITION COMPRISING AN INHIBITOR OF MITOCHONDRIAL TRANSCRIPTION” (LEAD DISCOVERY CENTER GMBH, priority 2021, published 2024).

Tests used:
Format in all cases: cell-based
[1] = tested on: MV4-11; assay: SRB assay, IMT combined with inhibitor; details: MV4-11 (hematological); concentration series of the labelled inhibitor + fixed concentration of IMT (3S)-1-[(2R)-2-[4-(2-chloro-4-fluoro-phenyl)-2-oxo-chromen-7-yl]oxypropanoyl]piperidine-3-carboxylic acid (Table 3: 40 nM, 120 h); negative=synergistic, positive=antagonistic
Procedure, shortened: (§1)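 Fixed 40 nM (3S)-1-[(2R)-2-[4-(2-chloro-4-fluoro-phenyl)-2-oxo-chromen-7-yl]oxypropanoyl]piperidine-3-carboxylic acid was co-dosed with serially diluted MAPK SOC inhibitors for 120 h. Growth read by SRB; 5 mM glucose, at least duplicate independent runs.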

[2] = tested on: BXPC3; assay: SRB assay, IMT combined with inhibitor; details: BXPC3 (pancreas); concentration series of the labelled inhibitor + fixed concentration of IMT (3S)-1-[(2R)-2-[4-(2-chloro-4-fluoro-phenyl)-2-oxo-chromen-7-yl]oxypropanoyl]piperidine-3-carboxylic acid (Table 3: 40 nM, 120 h); negative=synergistic, positive=antagonistic
Procedure, shortened: as §1

[3] = tested on: MDAMB468; assay: SRB assay, IMT combined with inhibitor; details: MDAMB468 (breast); concentration series of the labelled inhibitor + fixed concentration of IMT (3S)-1-[(2R)-2-[4-(2-chloro-4-fluoro-phenyl)-2-oxo-chromen-7-yl]oxypropanoyl]piperidine-3-carboxylic acid; negative=synergistic, positive=antagonistic
Description: (§2) Solforhodamine B assay is carried out as described in Voigt W. (2005) Sulforhodamine B Assay and Chemosensitivity. (Methods in Molecular Medicine™, vol 110. Humana Press. https://doi.org/10.1385/1-59259-869-2:039).
(§3) The determination of changes in cellular biomass was based on the Solforhodamine B assay format, carried out as described in Voigt W. (2005) Sulforhodamine B Assay and Chemosensitivity. (Methods in Molecular Medicine™, vol 110. Humana Press. https://doi.org/10.1385/1-59259-869-2:039).
(§4) All in vitro cell culture experiments were carried out under near physiological glucose concentrations (5 mM) in at least two independent replicates.
(§5) To establish the method described, combinations of (3S)-1-[(2R)-2-[4-(2-chloro-4-fluoro-phenyl)-2-oxo-chromen-7-yl]oxypropanoyl]piperidine-3-carboxylic acid and various PARPi were tested with regard to their effect on the cell growth of 33 tumour cell lines from different tissues, in the SRB and CTG assay format. The assay methods and protocols in cell culture and measurement followed the procedure as described in Example 1). […] This initial study was followed by validation experiments in a matrix format and in the CTG assay, as described for Example 1) (Table 6.)

[4] = tested on: ASPC1; assay: SRB assay, IMT combined with inhibitor; details: ASPC1 (pancreas); concentration series of the labelled inhibitor + fixed concentration of IMT (3S)-1-[(2R)-2-[4-(2-chloro-4-fluoro-phenyl)-2-oxo-chromen-7-yl]oxypropanoyl]piperidine-3-carboxylic acid; negative=synergistic, positive=antagonistic
Description: as §2, §3, §4, §5

[5] = tested on: MCF7; assay: SRB assay, IMT combined with inhibitor; details: MCF7 (breast); concentration series of the labelled inhibitor + fixed concentration of IMT (3S)-1-[(2R)-2-[4-(2-chloro-4-fluoro-phenyl)-2-oxo-chromen-7-yl]oxypropanoyl]piperidine-3-carboxylic acid; negative=synergistic, positive=antagonistic
Description: as §2, §3, §4, §5

[6] = tested on: A204; assay: SRB assay, IMT combined with inhibitor; details: A204 (muscle); concentration series of the labelled inhibitor + fixed concentration of IMT (3S)-1-[(2R)-2-[4-(2-chloro-4-fluoro-phenyl)-2-oxo-chromen-7-yl]oxypropanoyl]piperidine-3-carboxylic acid; negative=synergistic, positive=antagonistic
Description: as §2, §3, §4, §5

[7] = tested on: 33 tumour cell lines from different tissues; assay: SRB assay, panel of tumour cell lines; details: fixed concentration of IMT (3S)-1-[(2R)-2-[4-(2-chloro-4-fluoro-phenyl)-2-oxo-chromen-7-yl]oxypropanoyl]piperidine-3-carboxylic acid against concentration series of the labelled inhibitor
Description: as §2, §3, §4
as §5, with “6.) […]” for “6.)”

[8] = tested on: MDAMB231; assay: SRB assay, IMT combined with inhibitor; details: MDAMB231 (breast); concentration series of the labelled inhibitor + fixed concentration of IMT (3S)-1-[(2R)-2-[4-(2-chloro-4-fluoro-phenyl)-2-oxo-chromen-7-yl]oxypropanoyl]piperidine-3-carboxylic acid; negative=synergistic, positive=antagonistic
Description: as §2, §3, §4, §5

SMILES | difference between the calculated combinatorial index (BLISS) and the observed combinatorial effect [1] | difference between the calculated combinatorial index (BLISS) and the observed combinatorial effect [2] | difference between the calculated combinatorial index (BLISS) and the observed combinatorial effect [3] | difference between the calculated combinatorial index (BLISS) and the observed combinatorial effect [4] | difference between the calculated combinatorial index (BLISS) and the observed combinatorial effect [5] | difference between the calculated combinatorial index (BLISS) and the observed combinatorial effect [6] | combinatorial effect in the majority of the cell lines and tissue types examined [7] | difference between the calculated combinatorial index (BLISS) and the observed combinatorial effect [8]
O=C(NOC[C@H](O)CO)c1ccc(F)c(F)c1Nc1ccc(I)cc1F [PD 0325901, (R)—N-(2,3-dihydroxypropoxy)-3,4-difluoro-2-((2-fluoro-4-iodophenyl)amino)benzamide] | 0.0637 | 0.0495 |  |  |  |  |  | 
CC(C)(C)c1nc(-c2cccc(NS(=O)(=O)c3c(F)cccc3F)c2F)c(-c2ccnc(N)n2)s1 [Dabrafenib] | 0.0205 | 0.0251 |  |  |  |  |  | 
O=C(c1ccc(F)c(F)c1Nc1ccc(I)cc1F)N1CC(O)([C@@H]2CCCCN2)C1 [Cobimetinib] | 0.0051 | 0.0204 |  |  |  |  |  | 
Cn1cnc2c(F)c(Nc3ccc(Br)cc3Cl)c(C(=O)NOCCO)cc21 [Selumetinib] | 0.0150 | −0.0219 |  |  |  |  |  | 
CC(=O)Nc1cccc(-n2c(=O)n(C3CC3)c(=O)c3c(Nc4ccc(I)cc4F)n(C)c(=O)c(C)c32)c1 [Trametinib] | 0.0747 | 0.0889 |  |  |  |  |  | 
CS(=O)(=O)N1CCN(Cc2cc3nc(-c4cccc5[nH]ncc45)nc(N4CCOCC4)c3s2)CC1 [GDC-0941, 2-(1H-Indazol-4-yl)-6-[[4-(methylsulfonyl)-1-piperazinyl]methyl]-4-(4-morpholinyl)thieno[3,2-d]pyrimidine] | 0.0272 | 0.0704 | −0.0509 | 0.1003 | 0.0454 | 0.3066 |  | 
Cc1cc(C(=O)NOCCO)c(Nc2ccc(I)cc2F)n(C)c1=O [AZD8330, 2-((2-Fluoro-4-iodophenyl)amino)-N-(2-hydroxyethoxy)-1,5-dimethyl-6-oxo-1,6-dihydropyridine-3-carboxamide] | 0.0680 | 0.0756 |  |  |  |  |  | 
O=C(c1cc(Cc2n[nH]c(=O)c3ccccc23)ccc1F)N1CCN(C(=O)C2CC2)CC1 [Olaparib] | 0.0407 | 0.0315 | −0.0262 | −0.0583 | 0.0602 | −0.0329 | clear synergistic effect | −0.0488
COc1c(OCCCN2CCOCC2)ccc2c1N=C(NC(=O)c1cnc(N)nc1)N1CCN=C21 [BAY 80-6946, 2-Amino-N-{7-methoxy-8-[3-(4-morpholinyl)propoxy]-2,3-dihydroimidazo[1,2-c]quinazolin-5-yl}-5-pyrimidinecarboxamide] | 0.0337 | −0.0082 | 0.0183 | 0.0488 | 0.0155 | −0.0098 | clear synergistic effect | 
C[C@H](Nc1ncnc2nc[nH]c12)c1cc2cccc(Cl)c2c(=O)n1-c1ccccc1 [Duvelisib] | 0.0611 | −0.0109 | −0.0285 | 0.0753 | 0.0256 | −0.0217 |  | 
CC(C)Nc1cc(-c2c[nH]c(C(=O)N[C@H](CO)c3cccc(Cl)c3)c2)c(Cl)cn1 [Ulixertinib] | 0.0079 | 0.0946 |  |  |  |  |  | 
